From ChEMBL document CHEMBL1137797, “Differential inhibition of reverse transcriptase and various DNA polymerases by digallic acid and its derivatives” (J Nat Prod, 1990) come the findings set out here.

pKi: −log10 of the molar value. The source made the active and inactive calls. The calls are words filed in the database; no cut-off is given here.

For assay [1], the system named is Human immunodeficiency virus. As to the kind of experiment: Inhibition of HIV reverse transcriptase activity expressed in Escherichia coli.
Assay [2] has as its system Rauscher murine leukemia virus. As to the kind of experiment: Inhibition of Rauscher murine leukemia virus reverse transcriptase activity.
Assay [3] deals with Rauscher murine leukemia virus. The assay can be described thus: Inhibition of Rauscher murine leukemia virus reverse transcriptase assessed as incorporation of [3H]dTMP at 10 ug/ml.
The test system of assay [4] is Human immunodeficiency virus. As to the kind of experiment: Inhibition of HIV reverse transcriptase expressed in Escherichia coli assessed as incorporation of [3H]dTMP at 10 ug/ml.
Assay [5] has as its target DNA polymerase I (Escherichia coli) (UniProt P00582). The assay can be described thus: Inhibition of DNA polymerase-1 from Escherichia coli up to 1 ug/ml.
The test system of assay [6] is Rauscher murine leukemia virus. The assay can be described thus: Inhibition of Rauscher murine leukemia virus reverse transcriptase assessed as incorporation of [3H]dTMP at 1 ug/ml.
Assay [7] has as its system Rauscher murine leukemia virus. The assay can be described thus: Inhibition of Rauscher murine leukemia virus reverse transcriptase assessed as incorporation of [3H]dTMP at 0.2 ug/ml.
Assay [8] concerns the target T1, DNA polymerase alpha catalytic subunit (Homo sapiens) (UniProt P09884).
T1 sequence (whole entry): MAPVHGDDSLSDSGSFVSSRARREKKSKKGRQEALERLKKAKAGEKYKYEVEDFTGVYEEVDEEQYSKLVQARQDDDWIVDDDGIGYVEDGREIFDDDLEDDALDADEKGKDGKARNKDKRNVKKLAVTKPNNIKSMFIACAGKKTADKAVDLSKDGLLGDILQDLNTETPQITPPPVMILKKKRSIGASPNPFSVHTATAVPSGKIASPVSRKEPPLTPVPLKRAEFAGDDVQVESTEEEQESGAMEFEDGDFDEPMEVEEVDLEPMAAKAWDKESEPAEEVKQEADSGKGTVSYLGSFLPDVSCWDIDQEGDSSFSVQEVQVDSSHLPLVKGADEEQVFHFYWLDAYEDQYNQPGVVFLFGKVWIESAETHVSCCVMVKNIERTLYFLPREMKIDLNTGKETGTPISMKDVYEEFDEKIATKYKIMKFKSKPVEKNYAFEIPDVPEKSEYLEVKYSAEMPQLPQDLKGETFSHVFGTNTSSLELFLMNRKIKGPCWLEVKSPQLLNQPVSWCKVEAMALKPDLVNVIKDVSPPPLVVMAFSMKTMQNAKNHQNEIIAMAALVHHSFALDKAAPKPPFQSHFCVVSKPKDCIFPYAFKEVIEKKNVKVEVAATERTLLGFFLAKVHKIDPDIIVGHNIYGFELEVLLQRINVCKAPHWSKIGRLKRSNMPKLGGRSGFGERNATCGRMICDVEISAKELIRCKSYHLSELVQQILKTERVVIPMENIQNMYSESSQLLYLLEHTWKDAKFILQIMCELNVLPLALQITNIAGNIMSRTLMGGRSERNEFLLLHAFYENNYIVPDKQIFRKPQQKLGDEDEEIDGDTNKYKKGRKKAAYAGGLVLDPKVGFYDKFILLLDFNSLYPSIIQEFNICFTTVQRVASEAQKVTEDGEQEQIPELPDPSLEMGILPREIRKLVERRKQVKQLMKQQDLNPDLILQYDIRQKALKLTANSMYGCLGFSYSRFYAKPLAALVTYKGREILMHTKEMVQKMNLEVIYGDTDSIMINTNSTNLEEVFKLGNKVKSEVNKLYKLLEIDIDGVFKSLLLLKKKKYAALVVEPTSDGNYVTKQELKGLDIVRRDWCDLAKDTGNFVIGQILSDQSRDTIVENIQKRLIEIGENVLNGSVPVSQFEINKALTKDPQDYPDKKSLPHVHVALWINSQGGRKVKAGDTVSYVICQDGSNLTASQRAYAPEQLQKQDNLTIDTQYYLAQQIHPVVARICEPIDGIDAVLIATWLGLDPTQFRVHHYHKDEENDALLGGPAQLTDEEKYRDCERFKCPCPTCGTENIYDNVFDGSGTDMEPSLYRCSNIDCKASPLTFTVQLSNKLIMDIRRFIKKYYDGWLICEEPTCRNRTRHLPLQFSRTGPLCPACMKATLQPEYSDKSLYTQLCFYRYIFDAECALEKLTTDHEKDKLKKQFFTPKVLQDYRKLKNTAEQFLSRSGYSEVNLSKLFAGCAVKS
As to the kind of experiment: Inhibition of DNA polymerase alpha from human KB3 cells assessed as competitive type inhibition using activated DNA as substrate.

The subject of assay [9] is Human immunodeficiency virus. The assay can be described thus: Inhibition of HIV reverse transcriptase expressed in Escherichia coli assessed as incorporation of [3H]dTMP at 0.2 ug/ml.
Assay [10] deals with T1, DNA polymerase alpha catalytic subunit (Homo sapiens). As to the kind of experiment: Inhibition of DNA polymerase alpha from human KB3 cells at 1 ug/ml. It counts as cell-based.
In assay [11] the target is T2, DNA polymerase beta (Homo sapiens, UniProt P06746). The assay can be described thus: Inhibition of DNA polymerase beta from human KB3 cells. The assay is classed as cell-based.
The target of assay [12] is T3, DNA polymerase alpha catalytic subunit (Homo sapiens, UniProt P09884).
T3 sequence (P09884 whole entry): T1 sequence (whole entry)
As to the kind of experiment: Inhibition of DNA polymerase alpha from human KB3 cells. The assay is classed as cell-based.

Assay [13] deals with T2, DNA polymerase beta. The assay can be described thus: Inhibition of DNA polymerase beta from human KB3 cells assessed as competitive type inhibition using (rA)n.(dT)12-18 as substrate.
For assay [14], the system named is Human immunodeficiency virus. As to the kind of experiment: Inhibition of HIV reverse transcriptase expressed in Escherichia coli assessed as incorporation of [3H]dTMP at 1 ug/ml.
Assay [15] concerns the target DNA nucleotidylexotransferase (Bos taurus) (UniProt P06526). The assay can be described thus: Inhibition of terminal deoxynucleotidyltransferase from calf thymus up to 1 ug/ml.
Assay [16] relates to Human immunodeficiency virus. The assay can be described thus: Inhibition of HIV reverse transcriptase expressed in Escherichia coli assessed as mixed-type inhibition using (rA)n.(dT)12-18 as primer by double reciprocal plot.
Assay [17] deals with T2, DNA polymerase beta. The assay can be described thus: Inhibition of DNA polymerase beta from human KB3 cells assessed as non-competitive type inhibition using dTTP as substrate.
Assay [18] addresses T1, DNA polymerase alpha catalytic subunit (Homo sapiens). As to the kind of experiment: Inhibition of DNA polymerase alpha from human KB3 cells assessed as non-competitive type inhibition using dNTP as substrate.
The test system of the next assay is KB3. The assay can be described thus: Inhibition of DNA polymerase gamma from human KB3 cells up to 1 ug/ml. The assay is classed as cell-based.
Assay [19] relates to Human immunodeficiency virus. The assay can be described thus: Inhibition of HIV reverse transcriptase expressed in Escherichia coli assessed as non-competitive inhibition using dTTP as primer by double reciprocal plot.
The nature of assay [20]: Inhibition of HIV reverse transcriptase expressed in Escherichia coli by Dixon plot. Also noted: species or system Human immunodeficiency virus.
Assay [21] concerns Human immunodeficiency virus. As to the kind of experiment: Inhibition of HIV reverse transcriptase expressed in Escherichia coli assessed as competitive inhibition using (rA)n.(dT)12-18 as primer by double reciprocal plot.

Chain of DNA nucleotidylexotransferase (Bos taurus) (P06526 whole entry): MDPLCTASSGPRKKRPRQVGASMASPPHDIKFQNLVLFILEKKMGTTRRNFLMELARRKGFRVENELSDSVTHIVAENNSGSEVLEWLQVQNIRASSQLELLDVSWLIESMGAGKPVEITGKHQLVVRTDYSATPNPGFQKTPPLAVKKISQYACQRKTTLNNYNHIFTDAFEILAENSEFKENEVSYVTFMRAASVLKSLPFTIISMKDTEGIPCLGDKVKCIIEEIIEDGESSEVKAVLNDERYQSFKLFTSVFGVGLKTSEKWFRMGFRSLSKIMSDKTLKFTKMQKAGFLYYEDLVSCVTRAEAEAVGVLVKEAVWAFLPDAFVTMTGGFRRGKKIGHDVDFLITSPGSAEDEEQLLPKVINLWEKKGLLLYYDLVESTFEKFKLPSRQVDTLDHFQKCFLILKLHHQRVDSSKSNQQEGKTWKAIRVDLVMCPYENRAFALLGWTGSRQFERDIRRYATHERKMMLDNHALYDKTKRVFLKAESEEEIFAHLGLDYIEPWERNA
Chain of DNA polymerase I (Escherichia coli) (P00582 whole entry): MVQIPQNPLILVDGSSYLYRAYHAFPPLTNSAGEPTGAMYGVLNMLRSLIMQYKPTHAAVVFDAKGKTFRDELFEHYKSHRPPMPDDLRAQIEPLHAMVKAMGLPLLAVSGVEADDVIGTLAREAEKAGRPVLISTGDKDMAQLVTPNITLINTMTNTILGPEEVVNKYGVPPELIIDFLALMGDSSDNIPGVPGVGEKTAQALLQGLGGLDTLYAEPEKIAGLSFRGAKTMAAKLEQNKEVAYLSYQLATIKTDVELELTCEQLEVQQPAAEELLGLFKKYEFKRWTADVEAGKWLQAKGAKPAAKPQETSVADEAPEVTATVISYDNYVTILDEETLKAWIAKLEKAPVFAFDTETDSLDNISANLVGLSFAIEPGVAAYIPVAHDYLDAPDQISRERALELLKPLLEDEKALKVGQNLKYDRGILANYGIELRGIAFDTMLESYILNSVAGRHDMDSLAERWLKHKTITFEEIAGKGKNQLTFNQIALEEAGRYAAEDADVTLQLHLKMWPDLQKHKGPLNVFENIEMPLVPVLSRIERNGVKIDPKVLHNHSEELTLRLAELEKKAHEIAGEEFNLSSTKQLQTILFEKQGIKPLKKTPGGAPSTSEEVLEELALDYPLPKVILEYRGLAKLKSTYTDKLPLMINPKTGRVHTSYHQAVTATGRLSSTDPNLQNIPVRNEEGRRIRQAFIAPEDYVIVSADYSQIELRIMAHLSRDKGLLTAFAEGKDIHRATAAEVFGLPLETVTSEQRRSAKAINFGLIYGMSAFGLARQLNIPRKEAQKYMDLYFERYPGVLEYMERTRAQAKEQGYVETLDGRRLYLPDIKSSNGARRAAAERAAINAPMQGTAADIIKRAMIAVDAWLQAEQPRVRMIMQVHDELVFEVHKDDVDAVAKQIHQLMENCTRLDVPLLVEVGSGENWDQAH

Consider `COCCOCCOc1c(C(=O)Oc2cc(C(=O)O)cc(O)c2O)ccc(O)c1O`, for which the outcome in assay [1] and in assay [2] was inactive.

On to `O=C(O)c1cc(O)c(O)c(O)c1`, for which the outcome in [1], in assay [3], in assay [4] and in assay [2] was inactive.

For the compound `O=C(Oc1cc(O)cc(O)c1C(=O)O)c1ccc(O)c(O)c1`, the result in assay [1] and in [2] was inactive.

In the case of `O=C(O)c1cc(O)c(O)c(OC(=O)c2cc(O)c(O)c(O)c2)c1` [DIGALLIC ACID], the outcome (in assay [5]; in assay [15]; with KB3) was inactive. For the same compound, the result (in assay [6]; in [8]; at DNA polymerase beta [13]; in assay [14]; in assay [16]; on DNA polymerase beta [17]) was Active. Further, the result in assay [18] and in assay [19] was Active. In addition, the inhibition is 70% in assay [7], 70% in assay [9] and more than 90% in assay [10]. Moreover, the pKi is 6.41 at DNA polymerase beta [11], 6.08 in assay [12] and 6.24 in assay [20].

In the case of `COCCOCCOC(=O)c1cc(O)c(O)c(OC(=O)c2ccc(O)c(O)c2O)c1`, the result in [1], in assay [2], in assay [19] and in assay [21] was Active. Also, the pKi in assay [20] was 6.92.

On to `COCCOCCOCCOC(=O)c1cc(O)c(O)c(O)c1`, for which the result in assay [1] and in [2] was inactive.

On to `COCCOCCOC(=O)c1cc(O)c(O)c(O)c1`, for which the result in assay [1] and in assay [2] was inactive.

As to `COCCOCCOc1c(O)ccc(C(=O)Oc2cc(C(=O)O)cc(O)c2O)c1O`, the outcome in assay [1] and in [2] was inactive.

In the case of `COCCOCCOCCOC(=O)c1cc(O)c(O)c(OC(=O)c2ccc(O)c(O)c2O)c1`, the result in assay [1], in [16], in [2] and in assay [19] was Active. The pKi in [20] was 6.41.

In general, inhibition refers to the percentage by which the read-out fell short of the control. In general, pKi refers to −log10 of the Ki, conventionally taken in molar units. A high value points to a small Ki.
